Each structure is given as a SMILES string. Several values for one entry are separate records, joined by “and”; a condition that tells them apart may be missing. Identical values can stand only once.

The values that follow come from PMC10533412, “Phosphoantigens glue butyrophilin 3A1 and 2A1 to activate Vγ9Vδ2 T cells” (Nature, 2023).

Data set [1] concerns VpBTN1 BFI–VpBTN3 BFI. The data set can be described thus: ITC: VpBTN1 BFI binding to VpBTN3 BFI in the presence of pAg. Also noted: species or system alpaca (Vicugna pacos). On the procedure:
(§1) ITC experiments were performed using the MicroCal PEAQ-ITC instrument (GE Healthcare) at 25 °C. We used an initial injection of 0.4 μl followed by 19 injections (2 µl each) at 150 s time intervals. ITC binding fits were calculated using MicroCal Analysis software. The samples were prepared using a buffer (20 mM HEPES pH 7.5, 150 mM NaCl).
(§2) ITC experiments of HMBPP, DMAPP or IPP binding to the VpBTN3 BFI (or the preconditioned VpBTN3 BFI and VpBTN2 BFI complex) and VpBTN2 BFI (or VpBTN1 BFI) binding to VpBTN3 BFI in the presence of HMBPP, DMAPP or IPP were performed according to the same procedures as for the BTN3A1 B30.2 and BTN2A1 B30.2.
(In general: ITC needs no label: the signal is the heat of the interaction.)

Data set [2] addresses T1, preconditioned BTN2A1–BTN3A1 B30.2 complex (Homo sapiens, UniProt O00481+Q7KYR7).
T1 construct: The BTN3A1 B30.2 domain was expressed and purified as described previously; 6xHis; made in house; host or cells: Escherichia coli BL21 (DE3) for BTN2A1 B30.2
The data set can be described thus: ITC: pAg binding to the preconditioned BTN2A1 B30.2 and BTN3A1 B30.2 complex. The note with it: ITC; read-out: KD, pAg binding to the preconditioned BTN2A1–BTN3A1 B30.2 complex. The protocol: (§3) ITC binding fits were calculated using MicroCal Analysis software.
For HMBPP binding to the preconditioned BTN2A1 B30.2 and BTN3A1 B30.2 complex, BTN2A1 B30.2 (20 µM) and BTN3A1 B30.2 (10 µM) were incubated in the buffer at a 2:1 ratio and loaded into the sample cell, and the injection syringe was filled with buffer containing 100 µM HMBPP.
For DMAPP/IPP binding to the preconditioned BTN2A1 B30.2 and BTN3A1 B30.2 complex, BTN2A1 B30.2 (200 µM) and BTN3A1 B30.2 (100 µM) were incubated in buffer at a 2:1 ratio and loaded into the sample cell, and the injection syringe was filled with buffer containing 1 mM DMAPP/IPP.
For other pAgs, their concentrations were adjusted to 500 µM, and BTN2A1 B30.2 and BTN3A1 B30.2 were adjusted to 100 µM and 50 µM at a 2:1 ratio.

Data set [3] concerns MIA PaCa-2 cells. In words: Cell killing assay: cytotoxicity of Vγ9Vδ2 T cells towards pAg- or zoledronate-treated MIA PaCa-2 cells (luciferase). The class given is cell-based, human. The note with it: Homo sapiens, MIA PaCa-2, read-out: EC50 (M) for MIA PaCa-2 cell lysis mediated by HMBPP analogs and Vγ9Vδ2 T cells.
Protocol: (§4) MIA PaCa-2 cells were infected with lentivirus bearing luciferase transgene. Luciferase-positive cells were plated at 5.0 × 10^3 cells per well in 384-well plates 1 day before transfection. All plasmids were transfected into BTN2A^−/− MIA PaCa-2 (BTN2A1/BTN2A2 KO) cells using Lipofectamine 2000 reagent. […] Stable-lite luciferase (Vazyme) was added to each well and the luciferase signal was immediately measured by using the PerkinElmer EnVision microplate reader.
(§5) Percentage of lysis was calculated using the following equation: percentage of specific lysis = (maximum luciferase − experimental luciferase)/maximum luciferase × 100.
Data set [4] deals with T2, BTN3A1 B30.2 domain (Homo sapiens, UniProt O00481).
T2 construct: The BTN3A1 B30.2 domain was expressed and purified as described previously; made in house
T2 sequence (O00481 322-513 limits assumed): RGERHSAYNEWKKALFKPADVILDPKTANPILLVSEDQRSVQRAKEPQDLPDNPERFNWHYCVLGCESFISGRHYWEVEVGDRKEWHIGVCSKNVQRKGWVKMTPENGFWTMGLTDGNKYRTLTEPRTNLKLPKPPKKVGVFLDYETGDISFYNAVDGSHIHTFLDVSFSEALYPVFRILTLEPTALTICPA
The data set can be described thus: ITC: pAg binding to the BTN3A1 B30.2 domain. As to conditions: 25 °C, read-out: KD, pAg binding to BTN3A1 B30.2 alone. On the procedure:
as §3
For pAg binding to the BTN3A1 B30.2 domain, the sample cell and injection syringe were filled with the buffer containing 100 µM protein and 1 mM HMBPP, respectively, or 400 µM protein and 4 mM DMAPP (IPP), respectively.

Data set [5] relates to Vγ9Vδ2 T cells. The note with it: cited from earlier work.
In data set [6] the test system is BTN2A−/− MIA PaCa-2 (BTN2A1/BTN2A2 KO) cells. In words: Cell killing assay with BTN2A−/− MIA PaCa-2 (BTN2A1/BTN2A2 KO) cells expressing BTN2A1/BTN2A2 variants. The note with it: replicates and mean.
Protocol: as §4, §5
Data set [7] has as its target VpBTN3 BFI (Vicugna pacos, UniProt A0A345DF50). The data set can be described thus: ITC: pAg binding to VpBTN3 BFI. Also noted: species or system alpaca (Vicugna pacos). The protocol: as §1, §2

T1 sequence (O00481 322-513 limits assumed): as above
T1 sequence (Q7KYR7 316-527 limits assumed): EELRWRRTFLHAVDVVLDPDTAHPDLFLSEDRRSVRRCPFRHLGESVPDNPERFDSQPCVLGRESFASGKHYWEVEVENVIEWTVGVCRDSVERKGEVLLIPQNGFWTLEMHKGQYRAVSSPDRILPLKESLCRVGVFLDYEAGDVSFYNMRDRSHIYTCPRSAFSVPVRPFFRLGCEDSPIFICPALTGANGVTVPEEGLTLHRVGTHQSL
VpBTN3 BFI, sequence (A0A345DF50 entry or part of it): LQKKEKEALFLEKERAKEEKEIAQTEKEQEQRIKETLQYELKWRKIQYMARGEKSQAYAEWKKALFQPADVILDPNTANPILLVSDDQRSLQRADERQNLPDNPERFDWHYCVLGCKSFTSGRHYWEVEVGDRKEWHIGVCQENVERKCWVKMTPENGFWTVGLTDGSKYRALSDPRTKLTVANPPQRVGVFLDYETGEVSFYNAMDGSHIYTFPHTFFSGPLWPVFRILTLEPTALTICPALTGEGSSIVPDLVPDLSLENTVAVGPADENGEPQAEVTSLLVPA

In the case of `CC(C)=CCOP(=O)(O)OP(=O)(O)O` [Compound 2, 3-methylbut-2-en-1-yl diphosphate], the “VpBTN1 binding to VpBTN3 in the presence of pAg” value in data set [1] is “does not bind”. The results for the Kd in data set [2], in data set [4] and in data set [7] were 34.5 µM, 120 µM and 92.7 µM, respectively. For the same compound, the EC50 in data set [3] turned out to be 3.38e-05 M. In data set [5], the “Vγ9Vδ2 T cell activation” value is “weakly activate”. In addition, the “Cytotoxicity of Vγ9Vδ2 T cells (percentage of specific lysis)” value in data set [6] (DMAPP log concentration -3, 2A1 WT cells) is 67.6357% and 66.8005% and 66.45% and 64.9272%; in data set [6] (DMAPP log concentration -3, 2A1 ∆C cells), 50.07% and 46.3428% and 49.8006% and 54.0592%; in data set [6] (DMAPP log concentration -4, 2A1 WT cells), 51.6139% and 52.9591% and 50.43% and 46.7133%; in data set [6] (DMAPP log concentration -4, 2A1 ∆C cells), 32.85% and 28.2229% and 33.1127% and 37.2268%; in data set [6] (DMAPP log concentration -5, 2A1 WT cells), 27.5187% and 30.1465% and 24.7% and 16.4296%; in data set [6] (DMAPP log concentration -5, 2A1 ∆C cells), 7.57% and 3.153% and 7.027% and 12.531%. In addition, the “Cytotoxicity of Vγ9Vδ2 T cells (percentage of specific lysis)” value in data set [6] (DMAPP log concentration -6, 2A1 WT cells) was 16.7353% and 16.8396% and 11.83% and 1.904%; in data set [6] (DMAPP log concentration -6, 2A1 ∆C cells) it was -5.456% and -7.052% and -6.983% and -2.333%; in data set [6] (DMAPP log concentration -7, 2A1 WT cells), 14.3939% and 14.8552% and 15.57% and 17.4711%; in data set [6] (DMAPP log concentration -7, 2A1 ∆C cells) it was -6.482% and -4.367% and -8.1249% and -6.954%; in data set [6] (DMAPP log concentration -8, 2A1 WT cells), 15.6376% and 16.0032% and 16.43% and 17.6429%; in data set [6] (DMAPP log concentration -8, 2A1 ∆C cells), -6.047% and -3.94% and -7.782% and -6.418%. Further, the “Cytotoxicity of Vγ9Vδ2 T cells (percentage of specific lysis)” value was 15.8717% and 18.2997% and 15.33% and 11.8213% in data set [6] (DMAPP log concentration -9, 2A1 WT cells); -5.239% and -4.736% and -6.266% and -4.716% in data set [6] (DMAPP log concentration -9, 2A1 ∆C cells); 19.1442% and 5.933% and 13.82% and 16.3962% in data set [6] (DMAPP log concentration -10, 2A1 WT cells); -5.48% and -6.082% and -3.811% and -6.548% in data set [6] (DMAPP log concentration -10, 2A1 ∆C cells).

One may read the Kd as the concentration at which binding is half-saturated. The EC50 is the concentration needed to bring the measured effect to its halfway point.
